Assay results taken from US8288430B2, “Spiro(5.5)undecane derivatives” (Grunenthal GmbH, priority 2008, dated 2012).

Key:
[1] = target: hERG ion channel (Homo sapiens, UniProt Q12809); test: hERG K+ channel binding assay, displacement of [3H] dofetilide; conditions: for Ki (hERG) column, value given as % (1 μM): test concentration 1 μM
[2] = tested on: Sprague Dawley rats (mechanical allodynia after spinal nerve ligature); test: Chung model: mononeuropathic pain after spinal nerve ligature (SNL); format: in vivo; conditions: at 5 μg/kg

hERG ion channel, sequence (Q12809 whole entry): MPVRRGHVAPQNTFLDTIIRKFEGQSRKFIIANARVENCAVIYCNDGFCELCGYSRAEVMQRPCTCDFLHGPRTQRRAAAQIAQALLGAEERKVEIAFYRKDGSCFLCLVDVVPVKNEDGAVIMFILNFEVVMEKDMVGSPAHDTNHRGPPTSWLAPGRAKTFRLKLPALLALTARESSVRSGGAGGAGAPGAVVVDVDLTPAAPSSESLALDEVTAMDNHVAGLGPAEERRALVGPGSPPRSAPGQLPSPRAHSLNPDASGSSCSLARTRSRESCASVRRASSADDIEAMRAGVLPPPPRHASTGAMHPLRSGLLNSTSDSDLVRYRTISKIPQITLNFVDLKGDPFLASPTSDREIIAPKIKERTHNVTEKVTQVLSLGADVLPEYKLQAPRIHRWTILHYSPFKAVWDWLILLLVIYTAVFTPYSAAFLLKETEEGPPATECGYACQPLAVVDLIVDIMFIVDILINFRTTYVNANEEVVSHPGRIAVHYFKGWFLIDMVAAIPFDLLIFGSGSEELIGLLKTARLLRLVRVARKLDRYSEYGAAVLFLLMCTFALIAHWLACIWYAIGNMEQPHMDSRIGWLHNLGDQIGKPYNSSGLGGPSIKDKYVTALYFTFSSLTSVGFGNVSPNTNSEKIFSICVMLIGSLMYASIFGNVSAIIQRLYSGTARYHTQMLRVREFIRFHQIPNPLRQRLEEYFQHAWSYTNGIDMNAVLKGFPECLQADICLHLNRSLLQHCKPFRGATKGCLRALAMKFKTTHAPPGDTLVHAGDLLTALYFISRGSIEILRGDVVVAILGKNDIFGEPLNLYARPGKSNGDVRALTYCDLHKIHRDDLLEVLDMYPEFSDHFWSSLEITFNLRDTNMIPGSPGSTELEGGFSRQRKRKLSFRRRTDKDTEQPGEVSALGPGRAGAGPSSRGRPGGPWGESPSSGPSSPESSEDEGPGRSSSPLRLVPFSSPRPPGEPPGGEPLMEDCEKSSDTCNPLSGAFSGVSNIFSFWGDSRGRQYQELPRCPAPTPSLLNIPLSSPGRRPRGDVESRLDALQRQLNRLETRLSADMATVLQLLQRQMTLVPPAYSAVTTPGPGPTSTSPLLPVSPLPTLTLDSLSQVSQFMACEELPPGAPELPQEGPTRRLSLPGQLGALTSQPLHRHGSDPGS

Q: Which melting point does the source give for `CN(C)C1(Cc2ccccc2)CCC2(CCCc3c2[nH]c2ccccc32)CC1` (stereo not drawn) here?
A: 174 to 186 °C

Q: Which “Ki (hERG) column, value given as % (1 μM)” value [1] does the source give for `CN(C)C1(c2ccccc2)CCC2(CCCc3c2[nH]c2ccccc32)CC1` (single isomer, unassigned) [Ex. 1, N,N-dimethyl-4′-phenyl-2,3,4,9-tetrahydrospiro[carbazole-1,1′-cyclohexane]-4′-amine] here?
A: 13% (1 μM)

Q: Which Ki [1] does the source give for `CN(C)C1(c2ccccc2)CCC2(CC1)NCCc1c2[nH]c2ccccc12` (single isomer, unassigned) [C-2, reference compound] here?
A: 490 nM

Q: For `CN(C)C1(c2ccccc2)CCC2(CC1)NCCc1c2[nH]c2ccccc12` (single isomer, unassigned) [C-1, reference compound], which “Ki (hERG) column, value given as % (1 μM)” value [1] is on record?
A: 19% (1 μM)

Q: With `CN(C)C1(c2ccccc2)CCC2(CCCc3c2[nH]c2ccccc32)CC1` (single isomer, unassigned) [Ex. 2, N,N-dimethyl-4′-phenyl-2,3,4,9-tetrahydrospiro[carbazole-1,1′-cyclohexane]-4′-amine] as the compound, how does the “SNL Rat, i.v.” value [2] read?
A: 19% MPE

Q: What about the “Ki (hERG) Mean [μM]” value [1] of the same compound?
A: n.e.
